Experimental data as given in ChEMBL document CHEMBL5154649, “Design, synthesis, and characterization of novel aminoalcohol quinolines with strong in vitro antimalarial activity” (Eur J Med Chem, 2022).

Experiments:
Plasmodium falciparum [1] = assay: Antiplasmodial activity against CQ-susceptible Plasmodium falciparum 3D7 assessed as inhibition of parasite growth measured after 48 hrs by SYBR Green 1 dye based fluorescence assay; type: functional, organism-based; conditions: 3D7, 48 h
Plasmodium falciparum [2] = assay: Selectivity index, ratio of IC50 for antiplasmodial activity against CQ-susceptible Plasmodium falciparum 3D7 to IC50 for antiplasmodial activity against CQ-resistant Plasmodium falciparum W2 by SYBR Green 1 dye based fluorescence assay; type: functional
Plasmodium falciparum [3] = assay: Antiplasmodial activity against CQ-resistant Plasmodium falciparum W2 assessed as inhibition of parasite growth measured after 48 hrs by SYBR Green 1 dye based fluorescence assay; type: functional, organism-based; conditions: W2, 48 h
Plasmodium falciparum [4] = assay: Selectivity index, ratio of IC50 for antiplasmodial activity against CQ-susceptible Plasmodium falciparum 3D7 to IC50 for antiplasmodial activity CQ-resistant Plasmodium falciparum W2 by HRP2-ELISA; type: functional
Plasmodium falciparum [5] = assay: Antiplasmodial activity against CQ-susceptible Plasmodium falciparum 3D7 infected in human erythrocytes assessed as inhibition of parasite growth measured after 72 hrs by HRP2-ELISA; type: functional, organism-based; conditions: 3D7, Erythrocyte
Plasmodium falciparum [6] = assay: Antiplasmodial activity CQ-resistant Plasmodium falciparum W2 infected in human erythrocytes assessed as inhibition of parasite growth measured after 72 hrs by HRP2-ELISA; type: functional, organism-based; conditions: W2, Erythrocyte
[7] = Selectivity index, ratio of IC50 for cytotoxicity against chinese hamster CHO cells to IC50 for antiplasmodial activity against Plasmodium falciparum 3D7 infected in human erythrocytes by HRP2-ELISA; type: toxicity, cell-based; conditions: read-out: Ratio IC50
[8] = Cytotoxicity against Chinese hamster CHO cells assessed as reduction in cell viability incubated for 24 hrs by MTT assay; type: toxicity, cell-based, Cricetulus griseus
[9] = Cytotoxicity against human HepG2 cells assessed as reduction in cell viability incubated for 72 hrs by MTT assay; type: toxicity, cell-based
[10] = Cytotoxicity against human HFF cells assessed as reduction in cell viability incubated for 72 hrs by MTT assay; type: toxicity, cell-based
[11] = Selectivity index, ratio of IC50 for cytotoxicity against human HepG2 cells to IC50 for antiplasmodial activity against Plasmodium falciparum 3D7 infected in human erythrocytes by HRP2-ELISA; type: toxicity, cell-based; conditions: read-out: Ratio IC50
[12] = Selectivity index, ratio of IC50 for human HFF cells to IC50 for antiplasmodial activity against Plasmodium falciparum 3D7 infected in human erythrocytes by HRP2-ELISA; type: toxicity, cell-based; conditions: read-out: Ratio IC50
[13] = Cytotoxicity against human THP-1 cells assessed as reduction in cell viability incubated for 72 hrs by MTT assay; type: toxicity, cell-based
[14] = Selectivity index, ratio of IC50 for cytotoxicity against human THP-1 cells to IC50 for antiplasmodial activity against Plasmodium falciparum 3D7 infected in human erythrocytes by HRP2-ELISA; type: toxicity, cell-based; conditions: read-out: Ratio IC50

| Structure (SMILES) | IC50 (Plasmodium falciparum [1]) [nM] | Ratio IC50 (Plasmodium falciparum [2]) | IC50 (Plasmodium falciparum [3]) [nM] | other results |
| --- | --- | --- | --- | --- |
| O[C@@H](CN1CCN(Cc2cccc3ccccc23)CC1)c1cc(C(F)(F)F)nc2c(C(F)(F)F)cccc12 | > 1000 | – | – | – |
| O[C@@H](CN1CCN(C(c2ccccc2)c2ccccc2)CC1)c1cc(C(F)(F)F)nc2c(C(F)(F)F)cccc12 | 53.6 | 1.8 | 29.3 | – |
| C[C@H]1[C@@H](O)O[C@@H]2O[C@@]3(C)CC[C@H]4[C@H](C)CC[C@@H]1[C@@]24OO3 [ARTENIMOL] | – | – | – | Ratio IC50 (Plasmodium falciparum [4]): 0.9; IC50 (Plasmodium falciparum [5]): 2.8 nM; IC50 (Plasmodium falciparum [6]): 3 nM |
| OC[C@@H](NC[C@H](O)c1cc(C(F)(F)F)nc2c(C(F)(F)F)cccc12)c1ccccc1 | 104 | 6.5 | 15.9 | – |
| O[C@@H](CN1CCN(CCN2CCN(C[C@H](O)c3cc(C(F)(F)F)nc4c(C(F)(F)F)cccc34)CC2)CC1)c1cc(C(F)(F)F)nc2c(C(F)(F)F)cccc12 | 147 | – | > 1000 | – |
| NC[C@@H](O)c1cc(C(F)(F)F)nc2c(C(F)(F)F)cccc12 | – | – | 1460 | – |
| O[C@@H](CNCCNC(c1ccccc1)c1ccccc1)c1cc(C(F)(F)F)nc2c(C(F)(F)F)cccc12 | 35.8 | 1.05 | 34 | selectivity ratio [7]: 233; Ratio IC50 (Plasmodium falciparum [4]): 2.4; IC50 at 24 h [8]: 11600 nM; IC50 at 72 h [9]: 8800 nM; IC50 at 72 h [10]: 43900 nM; selectivity ratio [11]: 177; selectivity ratio [12]: 881; IC50 (Plasmodium falciparum [5]): 49.8 nM; IC50 (Plasmodium falciparum [6]): 20.7 nM; IC50 at 72 h [13]: 5000 nM; selectivity ratio [14]: 100 |
| O[C@H](CNCC1CC1)c1cc(C(F)(F)F)nc2c(C(F)(F)F)cccc12 | 4.1 | 1 | 4.1 | selectivity ratio [7]: 2400; Ratio IC50 (Plasmodium falciparum [4]): 0.8; IC50 at 24 h [8]: 31000 nM; IC50 at 72 h [9]: 4300 nM; IC50 at 72 h [10]: 18500 nM; selectivity ratio [11]: 333; selectivity ratio [12]: 1430; IC50 (Plasmodium falciparum [5]): 12.9 nM; IC50 (Plasmodium falciparum [6]): 15.8 nM; IC50 at 72 h [13]: 6900 nM; selectivity ratio [14]: 534 |
| C[C@@H](CO)NC[C@H](O)c1cc(C(F)(F)F)nc2c(C(F)(F)F)cccc12 (single isomer, unassigned) | 138 | 2.7 | 51.7 | – |
| OCCNC[C@H](O)c1cc(C(F)(F)F)nc2c(C(F)(F)F)cccc12 | > 1000 | – | – | – |
| CC(C)(CO)NC[C@@H](O)c1cc(C(F)(F)F)nc2c(C(F)(F)F)cccc12 | 254 | 1.9 | 137 | – |
| O[C@H](CNCCCCCCCCCCCCNC[C@@H](O)c1cc(C(F)(F)F)nc2c(C(F)(F)F)cccc12)c1cc(C(F)(F)F)nc2c(C(F)(F)F)cccc12 | 249 | 0.3 | 837 | – |
| C=C[C@H]1CN2CC[C@H]1C[C@H]2[C@H](O)c1ccnc2ccc(OC)cc12 [QUININE] | – | – | – | Ratio IC50 (Plasmodium falciparum [4]): 0.2; IC50 (Plasmodium falciparum [5]): 74.2 nM; IC50 (Plasmodium falciparum [6]): 474 nM |
| OC[C@@H](NC[C@@H](O)c1cc(C(F)(F)F)nc2c(C(F)(F)F)cccc12)c1ccccc1 | 94.4 | 9.6 | 9.8 | – |
| COC[C@H](C)NC[C@H](O)c1cc(C(F)(F)F)nc2c(C(F)(F)F)cccc12 | 14.4 | 2.8 | 5.1 | – |
| OC[C@H](Cc1ccccc1)NC[C@@H](O)c1cc(C(F)(F)F)nc2c(C(F)(F)F)cccc12 | 30.2 | 5.4 | 5.6 | selectivity ratio [7]: 511; Ratio IC50 (Plasmodium falciparum [4]): 1.5; IC50 at 24 h [8]: 29700 nM; IC50 at 72 h [9]: 10900 nM; IC50 at 72 h [10]: 25400 nM; selectivity ratio [11]: 188; selectivity ratio [12]: 437; IC50 (Plasmodium falciparum [5]): 58.1 nM; IC50 (Plasmodium falciparum [6]): 39.4 nM; IC50 at 72 h [13]: 7200 nM; selectivity ratio [14]: 124 |
| OCCNC[C@@H](O)c1cc(C(F)(F)F)nc2c(C(F)(F)F)cccc12 | > 1000 | – | – | – |
| O[C@@H](CN1CCN(C[C@H](O)c2cc(C(F)(F)F)nc3c(C(F)(F)F)cccc23)CC1)c1cc(C(F)(F)F)nc2c(C(F)(F)F)cccc12 | > 1000 | – | > 1000 | – |
| OCCCC(CCCO)(CCCO)NC[C@@H](O)c1cc(C(F)(F)F)nc2c(C(F)(F)F)cccc12 | > 1000 | – | – | – |
| O[C@H](CNCCCN1CCN(CCCNC[C@@H](O)c2cc(C(F)(F)F)nc3c(C(F)(F)F)cccc23)CC1)c1cc(C(F)(F)F)nc2c(C(F)(F)F)cccc12 | > 1000 | > 1.9 | 534 | – |
| CCNCc1cc(Nc2ccnc3cc(Cl)ccc23)ccc1O [DESETHYL AMODIAQUINE] | – | – | – | Ratio IC50 (Plasmodium falciparum [4]): 0.25; IC50 (Plasmodium falciparum [5]): 24.7 nM; IC50 (Plasmodium falciparum [6]): 100 nM |
| O[C@H](CN1CCNCC1)c1cc(C(F)(F)F)nc2c(C(F)(F)F)cccc12 | > 1000 | – | – | – |
| OC[C@H](NC[C@H](O)c1cc(C(F)(F)F)nc2c(C(F)(F)F)cccc12)c1ccccc1 | 136 | 4.55 | 29.9 | – |
